This passage reports IC50 results from paper PMC10408170, “Synthesis, DFT and molecular docking of novel (Z)-4-bromo-N-(4-butyl-3 (quinolin-3-yl)thiazol-2(3H)-ylidene)benzamide as elastase inhibitor” (BMC Chemistry, 2023).

Broadly, the IC50 is the concentration that gives 50% inhibition. Low readings indicate greater potency, high ones weaker potency.

For this assay, the target named is T1, Elastase from porcine pancreas (Sus scrofa, UniProt P00772).
T1 construct: gene CELA1
Kind of assay: enzyme inhibition assay, p-nitroaniline release from N-succinyl-Ala-Ala-Ala-p-nitroanilide. It is filed as biochemical.

T1 sequence (P00772 27-266): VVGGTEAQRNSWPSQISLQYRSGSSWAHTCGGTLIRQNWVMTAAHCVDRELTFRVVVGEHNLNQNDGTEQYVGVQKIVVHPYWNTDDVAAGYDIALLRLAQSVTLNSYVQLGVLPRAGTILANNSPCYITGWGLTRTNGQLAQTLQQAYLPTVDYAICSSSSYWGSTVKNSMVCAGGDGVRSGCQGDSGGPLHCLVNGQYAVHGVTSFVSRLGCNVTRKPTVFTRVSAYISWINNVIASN

In turn, `CCCCc1cs/c(=N\C(=O)c2ccc(Br)cc2)n1-c1cnc2ccccc2c1` [compound 6, (Z)-4-bromo-N-(4-butyl-3-(quinolin-3-yl)thiazol-2(3H)-ylidene)benzamide] registered an IC50 of 1210 nM.
